Measured values taken from patent publication US20250129067A1 (Progentos Therapeutics, Inc., priority 2021, published 2025).
Where two headings read alike, the source gives them in different places.

Columns and labels:
MBP (myelin) in brain = experiment: Remyelination in chronically demyelinated mice (cuprizone model), MBP staining; type: in vivo, C57BL/6 mice; conditions: for In vivo MBP Increases: MBP staining at day 10 after the first dose, blinded score
Description: The ability of newly constructed compounds (described in above Examples) to induce remyelination after demyelination in adult mice was tested using a cuprizone model. Cuprizone administration specifically induces the loss of myelin and oligodendrocytes. Mice were maintained on cuprizone chow to induce demyelination, the cuprizone was discontinues, and the compounds were administered. The animals were sacrificed 10 days after compound administration was initiated and their brains sections and stained for MBP, an important component of myelin.
The chow was stored at 4° C. until use.
Mice were allowed ad libitum access to cuprizone chow. […] The cuprizone diet was discontinued 24 hours before compound treatment was initiated.
To assess oligodendrocyte differentiation, the mice were euthanized and assessed at day 3 after the first dose. To assess MBP expression, the animals were euthanized and assessed at day 10 after the first dose.
For some compounds, MBP intensity, an intensity weighted positive pixel count, was measured using an algorithm developed in Visiopharm Software.

PDGFRα = PDGFRα (Homo sapiens (Human), UniProt P16234); experiment: PDGFRα kinase enzyme assay (Promega PDGFRα Kinase Enzyme System, ADP-Glo); type: biochemical; conditions: 150 uM ATP
Summary of the method: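 Read-out was ADP-Glo: remaining ATP depleted, ADP converted to luminescence and compared with a standard curve.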

[1] = test system: NG2+ cells (OPCs) in brain; experiment: OPC population recovery after administration of PDGFRα inhibitor, NG2 staining; type: in vivo, C57BL/6 mice; conditions: mice
Description: OPCs first appear during embryonic organogenesis and continue to exist in adult brain (in both gray and white matter), maintaining their population through self-renewal. To assess whether PDGFRα inhibitors described herein have an effect on the maintenance of the OPC population when administered in vivo, two different PDGFRα inhibitors were tested, each having a different in vivo half-life. Then, the expression of NG2 (marker for OPCs) was assessed in the brains of the treated mice at various time points after treatment as described in more detail below.
The mice received a single administration of either Compound 6 (10 mg/kg) or Compound 78 (5 mg/kg). Control animals received a vehicle control. Then, at days 3, 6, 9, or 12 days after dosing, some of the animals from each of the treatment groups were sacrificed and their brains were harvested for analysis.
The floating sections were incubated with a rabbit anti-NG2 antibody (EMD Millipore, catalog no. AB5320) (i.e., the primary antibody) diluted in blocking solution (to a concentration of 1:1000) overnight at room temperature on a shaker.
NG2 staining was assessed by an observer blinded to the treatment condition and given a score from 1 to 5, with 5 representing the level of OPC population observed in naïve animals that had not received an exemplar PDGFRα inhibitor.

[2] = test system: GPR17+ cells in brain tissue; experiment: Differentiation of newly generated OPCs after a second dose, GPR17+ cells; type: in vivo, C57BL/6 mice
Description: Further to the results provided above in Example 244, it was assessed whether OPCs that are newly generated (i.e., through self-renewal) after PDGFRα inhibitor administration have the ability to differentiate into mature oligodendrocytes. As described below, testing this made use of the transient characteristics of GPR17 expression. […] Therefore, the effects of a first and second dose of compound can be distinguished from one another. In these experiments, mice received a first dose of either vehicle or compound, which differentiated the OPCs and reduced the size of the OPC population. Five, fourteen, or twenty-one days later, mice received a second dose of compound and the response to the second dose was measured. These intervals tested whether newly generated OPCs could respond to compound and differentiate into oligodendrocytes. It also tested what the minimum interval was between two doses to get a nearly full response from the second dose.
Mice were treated with a vehicle control and/or Compound 78. The specific treatment groups were as follows: (1) single dose of the vehicle control on day 1; (2) a dose of the vehicle control on day 0 and a dose of compound 78 on day 5; (3) a first dose of compound 78 on day 0 and a second dose of compound 78 on day 5; (4) a first dose of compound 78 on day 0 and a second dose of compound 78 on day 14; and (5) a first dose of compound 78 on day 0 and a second dose of compound 78 on day 21. As described in the above examples, the animals were sacrificed three days after the last dose and their brains were harvested for analysis. GPR17+ expression in the brain tissue was assessed as described herein. Then, the mice were sacrificed 3 days after the second dose and the brains were harvested for analysis.
Histology was performed as described in Example 244 using reagents described in Table xx (below).
Images obtained from the histology preparations were analyzed using a custom protocol implemented with Visiopharm software to count GPR17+ cells.

In vivo half-life = conditions: comparison in words
[3] = test system: GPR17+ cells (newly differentiated oligodendrocytes); experiment: In vivo OPC differentiation, GPR17+ cells in brain
[4] = test system: Oligodendrocyte progenitor cells (OPCs); experiment: In vitro OPC differentiation assay, MBP expression (immunocytochemistry); conditions: 72 hours of treatment; fold change over vehicle
Description: Cortices from postnatal day (P) 1-3 rats were dissected and collected into ice cold Hank's Balanced Salt Solution (HBSS). […] Briefly, the cortical cell suspension was centrifuged and washed with buffer (0.5% BSA in PBS) and labeled with Anti-A2B5 MicroBeads (10 μL beads per 1×10^7 cells) for 15 minutes at 4° C. Following the incubation, cells were washed once with BSA buffer to remove unlabeled beads. A2B^5 positive cells were eluted on the column using the AutoMACS® (Miltenyi, as per manufacturer's protocol using “possel-s” program). Eluted cells were further washed twice with OPC growth media. Cell count was performed using Countess III cell counter (ThermoFisher; AMQAX2000) and cells were plated.
A2B5+ OPCs were plated in poly-d-lysine (PDL) coated T75 flask at a density of ˜3 million cells per flask. […] TrypLE was normalized by adding 10 mL growth media and cells were centrifuged at 1400 rpm for 10 minutes. […] The plates were allowed to sit at room temperature for 15 minutes to ensure proper dispersion of cells in a well. The plates were then transferred to the incubator (37° C.; 5% CO2).
Cells were then incubated for 72 hours at 37° C., 5% CO2 before immunostaining for MBP marker expression.
Following 72 hours of treatment, cells were fixed with 4% paraformaldehyde for 15 minutes then washed three times in DPBS. Prior to staining, cells were blocked for 15 minutes in 10% normal goat serum containing 1% BSA and 0.1% Triton X-100 in DPBS. Primary antibody (MBP @ 1:2000; Abcam AB7349) was applied to cells overnight at 4° C. in incubation solution containing 1% normal goat serum, 1% BSA, and 0.1% Triton X-100 in DPBS.
The number of differentiated MBP+ cells was normalized to the total nuclei count and percent differentiated MBP+ cells were reported.

[5] = test system: Oligodendrocyte progenitor cells (OPCs); experiment: In vitro OPC differentiation assay, GPR17 expression (immunocytochemistry); conditions: 72 hours, fold change over vehicle; for GPR17 Fold Induction (Over Vehicle; 3 μM): 3 μM (10× concentration, final 0.3 μM)
Description: To assess the effects of the PDGFRα inhibitors on OPC differentiation, primary OPCs were cultured and exposed to compounds. The number of newly generated oligodendrocytes was assessed by monitoring GPR17 expression. GPR17 is preferentially expressed in actively differentiating oligodendrocytes, allowing them to be distinguished from precursors and more differentiated oligodendrocytes.
Cortices from postnatal day (P) 1-3 rats were dissected and collected into ice cold Hank's Balanced Salt Solution (HBSS). […] Briefly, the cortical cell suspension was centrifuged and washed with buffer (0.5% BSA in PBS) and labeled with Anti-A2B^5 MicroBeads (10 μL beads per 1×10^7 cells) for 15 minutes at 4° C. Following the incubation, cells were washed once with BSA buffer to remove unlabeled beads. A2B^5 positive cells were eluted on the column using the AutoMACS® (Miltenyi, as per manufacturer's protocol using “Possel-s” program). Eluted cells were further washed twice with OPC growth media. Cell counts were performed using Countess III cell counter (ThermoFisher; AMQAX2000) and cells were plated.
The plates were allowed to sit at room temperature for 15 minutes to ensure proper dispersion of cells in a well. The plates were then transferred to the incubator (37° C.; 5% CO2).
Cells were then incubated for 72 hours at 37° C., 5% CO2 before immunostaining for GPR17 marker expression.
Following 72 hours in culture, cells were fixed with 4% paraformaldehyde for 15 minutes and then washed three times in Dulbecco's phosphate buffered saline (DPBS). Prior to immunostaining, cells were treated with a blocking solution (10% normal goat serum containing 1% BSA and 0.1% Triton® X-100 in DPBS) for 15 minutes at room temperature. Primary antibody (anti-GPR17 at 1:2000; Origene TA811615) was applied to cells overnight at 4° C. in incubation solution containing 1% normal goat serum, 1% BSA, and 0.1% Triton X-100 in DPBS. […] The secondary antibody was applied in incubation solution for 2 hours at room temperature, protected from light.
The number of differentiated GPR17+ cells was normalized to the total nuclei count and percent differentiated GPR17+ cells were reported. Statistical analysis was done using one-way ANOVA with multiple comparisons and post-hoc Tukey test in GraphPad Prism (GraphPad Software).

[6] = 20 ng purified PDGFRα, Poly (Glu4Tyr1) substrate, two hours, 11-point dose response, read-out: IC50 Values on PDGFRα Kinase Inhibition
[7] = 11-point dose response, 10,000 nM to 0.169 nM, BLQ = below limit of quantitation, read-out: IC50 Values on PDGFRα Kinase Inhibition, IC50
[8] = Mus musculus, po, 24 h, read-out: GPR17 Fold Induction (Over Vehicle)

Chain of PDGFRα (P16234 24-1089): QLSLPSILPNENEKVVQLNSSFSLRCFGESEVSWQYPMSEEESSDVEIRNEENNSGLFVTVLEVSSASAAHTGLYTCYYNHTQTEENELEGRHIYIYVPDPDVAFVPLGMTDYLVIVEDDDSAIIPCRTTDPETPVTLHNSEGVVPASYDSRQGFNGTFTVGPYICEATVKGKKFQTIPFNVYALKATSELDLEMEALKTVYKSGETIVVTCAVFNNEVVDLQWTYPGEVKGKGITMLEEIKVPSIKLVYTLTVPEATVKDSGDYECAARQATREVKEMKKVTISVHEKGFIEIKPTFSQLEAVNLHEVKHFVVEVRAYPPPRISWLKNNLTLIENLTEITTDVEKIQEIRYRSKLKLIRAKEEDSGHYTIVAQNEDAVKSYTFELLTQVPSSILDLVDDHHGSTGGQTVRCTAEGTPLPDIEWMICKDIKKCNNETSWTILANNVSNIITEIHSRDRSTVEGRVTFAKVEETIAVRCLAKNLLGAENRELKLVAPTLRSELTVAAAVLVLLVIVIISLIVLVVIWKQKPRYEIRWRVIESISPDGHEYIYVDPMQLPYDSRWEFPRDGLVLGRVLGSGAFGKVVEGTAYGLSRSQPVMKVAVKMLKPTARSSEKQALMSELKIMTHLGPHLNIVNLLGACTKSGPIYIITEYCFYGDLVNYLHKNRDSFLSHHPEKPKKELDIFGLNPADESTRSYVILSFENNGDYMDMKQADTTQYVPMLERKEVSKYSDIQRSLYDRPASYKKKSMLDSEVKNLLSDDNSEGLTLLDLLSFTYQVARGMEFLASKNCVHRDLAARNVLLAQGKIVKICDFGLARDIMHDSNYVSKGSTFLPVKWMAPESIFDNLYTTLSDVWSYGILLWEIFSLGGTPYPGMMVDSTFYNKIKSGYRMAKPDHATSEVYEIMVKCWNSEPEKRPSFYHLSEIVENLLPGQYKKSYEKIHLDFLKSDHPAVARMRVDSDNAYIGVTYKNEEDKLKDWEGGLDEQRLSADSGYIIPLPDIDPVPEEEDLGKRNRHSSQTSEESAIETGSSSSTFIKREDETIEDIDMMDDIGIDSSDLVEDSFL

| IC50 (PDGFRα; [7]) | MBP Fold Induction (Over vehicle) [4] | GPR17 Fold Induction (Over Vehicle; 3 μM) [5] | SMILES | In vivo MBP Increases (MBP (myelin) in brain) | fold induction at 3 mg/kg [3, 8] | further results |
| --- | --- | --- | --- | --- | --- | --- |
|  |  |  | Cn1cc(-c2cc3c(N4CCN(c5ncc([C@@](C)(N)c6ccc(F)cc6)cn5)CC4)ncnn3c2)cn1 [Avapritinib, avapritinib, reference compound] | ++++ (given a score from 1 to 5) |  |  |
| 407 nM | 2.95 | 4.47 | Cn1cc(-c2ccc3c(N4CCN(c5ncc(Cc6ccccc6)cn5)CC4)cnn3c2)cn1 [Compound 6, 3-[4-(5-benzylpyrimidin-2-yl)piperazin-1-yl]-6-(1-methyl-1H-pyrazol-4-yl)pyrazolo[1,5-a]pyridine] | +++++ (5 representing the level of myelination observed in naïve, healthy animals that had not undergone demyelination) |  | IC50 (PDGFRα; [6]): < 1000 nM; MBP expression within the different regions of the brain (MBP (myelin) in brain; single dose, versus vehicle control): significant increase in MBP expression; Half-life (In vivo half-life): longer half-life; fold induction at 150 mg/kg [3, 8]: 18.7; GPR17 Fold Induction (Over Vehicle; 5 μM) ([5]; 5 μM (10× concentration, final 0.5 μM)): 4.07 |
|  |  |  | CN1CCC[C@@H]1CCO[C@](C)(c1ccccc1)c1ccc(Cl)cc1 [Clemastine, clemastine, reference compound] | + (given a score from 1 to 5) |  | In vivo GPR17+ cells, GPR17 Fold Induction (Over Vehicle) ([3]; adult female C57BL/6 mice, PO or IP, treatment period 1-3 days, entire brain, fold change over vehicle treated animals): 1.55 |
| 2070 nM | 7.25 | 5.98 | Cn1cc(-c2ccc3c(N4CCN(c5ncc(Cc6cccs6)cn5)CC4)cnn3c2)cn1 [Compound 178, 6-(1-methyl-1H-pyrazol-4-yl)-3-(4-(5-(thiophen-2-ylmethyl)pyrimidin-2-yl)piperazin-1-yl)pyrazolo[1,5-a]pyridine] |  |  | fold induction at 30 mg/kg [3, 8]: 0.96 |
| 120 nM | 5.64 | 8.97 | OCCn1cc(-c2ccc3c(N4CCN(c5ncc(Cc6ccccc6)cn5)CC4)cnn3c2)cn1 [Compound 55, 2-(4-{3-[4-(5-benzylpyrimidin-2-yl)piperazin-1-yl]pyrazolo[1,5-a]pyridin-6-yl}-1H-pyrazol-1-yl)ethanol] |  | 6.43 |  |
| 350 nM | 48.00 | 5.84 | Cn1cc(-c2ccc3c(N4CCN(C(=O)N5CCCCC5)CC4)cnn3c2)cn1 [Compound 163, (4-(6-(1-methyl-1H-pyrazol-4-yl)pyrazolo[1,5-a]pyridin-3-yl)piperazin-1-yl)(piperidin-1-yl)methanone] |  | 0.95 |  |

| SMILES | IC50 (PDGFRα; [7]) | MBP Fold Induction (Over vehicle) [4] | GPR17 Fold Induction (Over Vehicle; 3 μM) [5] | In vivo MBP Increases (MBP (myelin) in brain) | fold induction at 3 mg/kg [3, 8] | further results |
| --- | --- | --- | --- | --- | --- | --- |
| C[C@@H](OC(=O)N1CCN(c2cnn3cc(-c4cnn(C)c4)ccc23)CC1)c1ccc(Cl)cc1 [Compound 78, (1R)-1-(4-Chlorophenyl)ethyl 4-[6-(1-methyl-1H-pyrazol-4-yl)pyrazolo[1,5-a]pyridin-3-yl]piperazine-1-carboxylate] | < 0.17 nM | 10.93 | 13.71 |  | 14.9 | IC50 (PDGFRα; [6]): < 1000 nM; Time post administration until number of OPCs in the brain was comparable to control animals ([1]; single administration 5 mg/kg): about 9 days; OPC population recovery after 6 days ([1]; single administration, Compound 78 compared to Compound 6): greater recovery; GPR17+ cells within the brain tissue ([2]; Group 2: vehicle on day 0, first dose of compound on day 5, sacrificed three days after the last dose): significant numbers of GPR17+ cells; GPR17+ cells after second dose ([2]; Group 3: two doses at a dosing interval of 5 days, compared to dosing intervals of 14 days and 21 days): significantly fewer GPR17+ cells; Dosing interval necessary to see any effect on oligodendrocyte generation from the second administration ([2]; mice, two separate doses): greater than 5 days; Half-life (In vivo half-life): shorter half-life than Compound 6 |
| C[C@H](OC(=O)N1CCN(c2cnn3cc(-c4cnn(C)c4)ccc23)CC1)c1ccc(Cl)cc1 [Compound 271, (1S)-1-(4-chlorophenyl)ethyl 4-[6-(1-methyl-1H-pyrazol-4-yl)pyrazolo[1,5-a]pyridin-3-yl]piperazine-1-carboxylate] | 1490 nM | 2.21 | 6.67 |  | 0.83 |  |
